Structures are written as SMILES. Bounds are passed on as bounds.

This test addresses T1, […]F508-CFTR (Homo sapiens, UniProt P13569, DEL508-508).
T1 construct: expressed in transfected cells
Nature of the test: Assay results of Table 3: ΔF508-CFTR modulation, membrane potential optical assay (assay format not stated). The test is classed as cell-based. The conditions noted are these: NIH3T3 mouse fibroblasts stably expressing […]F508-CFTR (optical assays); for Efficacy: efficacy range; for EC50: potency range. The text has this:
A. Membrane Potential Optical Methods for Assaying […]F508-CFTR Modulation Properties of Compounds
The optical membrane potential assay utilized voltage-sensitive FRET sensors described by Gonzalez and Tsien (See, Gonzalez, J. E. and R. Y. Tsien (1995) “Voltage sensing by fluorescence resonance energy transfer in single cells” Biophys J 69(4): 1272-80, and Gonzalez, J. E. and R. Y. Tsien (1997) “Improved indicators of cell membrane potential that use fluorescence resonance energy transfer” Chem Biol 4(4): 269-77) in combination with instrumentation for measuring fluorescence changes such as the Voltage/Ion Probe Reader (VIPR) (See, Gonzalez, J. E., K. Oades, et al. (1999) “Cell-based assays and instrumentation for screening ion-channel targets” Drug Discov Today 4(9): 431-439).
These voltage sensitive assays are based on the change in fluorescence resonant energy transfer (FRET) between the membrane-soluble, voltage-sensitive dye, DiSBAC2(3), and a fluorescent phospholipid, CC2-DMPE, which is attached to the outer leaflet of the plasma membrane and acts as a FRET donor. Changes in membrane potential (Vm) cause the negatively charged DiSBAC2(3) to redistribute across the plasma membrane and the amount of energy transfer from CC2-DMPE changes accordingly. The changes in fluorescence emission were monitored using VIPR™ II, which is an integrated liquid handler and fluorescent detector designed to conduct cell-based screens in 96- or 384-well microtiter plates.
To identify small molecules that correct the trafficking defect associated with ΔF508-CFTR; a single-addition HTS assay format was developed. The cells were incubated in serum-free medium for 16 hrs at 37° C. in the presence or absence (negative control) of test compound. As a positive control, cells plated in 384-well plates were incubated for 16 hrs at 27° C. to “temperature-correct” […]F508-CFTR. The cells were subsequently rinsed 3× with Krebs Ringers solution and loaded with the voltage-sensitive dyes. To activate […]F508-CFTR, 10 µM forskolin and the CFTR potentiator, genistein (20 µM), were added along with Cl^−-free medium to each well. The addition of Cl^−-free medium promoted Cl^− efflux in response to […]F508-CFTR activation and the resulting membrane depolarization was optically monitored using the FRET-based voltage-sensor dyes.
To identify potentiators of […]F508-CFTR, a double-addition HTS assay format was developed. During the first addition, a Cl^−-free medium with or without test compound was added to each well. After 22 sec, a second addition of Cl^−-free medium containing 2-10 µM forskolin was added to activate […]F508-CFTR. The extracellular Cl^− concentration following both additions was 28 mM, which promoted Cl^− efflux in response to […]F508-CFTR activation and the resulting membrane depolarization was optically monitored using the FRET-based voltage-sensor dyes.
Bath Solution #1: (in mM) NaCl 160, KCl 4.5, CaCl2 2, MgCl2 1, HEPES 10, pH 7.4 with NaOH.
Chloride-free bath solution: Chloride salts in Bath Solution #1 are substituted with gluconate salts.
CC2-DMPE: Prepared as a 10 mM stock solution in DMSO and stored at −20° C.
DiSBAC2(3): Prepared as a 10 mM stock in DMSO and stored at −20° C.
NIH3T3 mouse fibroblasts stably expressing […]F508-CFTR are used for optical measurements of membrane potential. The cells are maintained at 37° C. in 5% CO2 and 90% humidity in Dulbecco's modified Eagle's medium supplemented with 2 mM glutamine, 10% fetal bovine serum, 1× NEAA, […]-ME, 1× pen/strep, and 25 mM HEPES in 175 cm^2 culture flasks. For all optical assays, the cells were seeded at 30,000/well in 384-well matrigel-coated plates and cultured for 2 hrs at 37° C. before culturing at 27° C. for 24 hrs for the potentiator assay. For the correction assays, the cells are cultured at 27° C. or 37° C. with and without compounds for 16-24 hoursB.

T1 sequence (P13569 with tags, fused parts or gaps DEL508-508): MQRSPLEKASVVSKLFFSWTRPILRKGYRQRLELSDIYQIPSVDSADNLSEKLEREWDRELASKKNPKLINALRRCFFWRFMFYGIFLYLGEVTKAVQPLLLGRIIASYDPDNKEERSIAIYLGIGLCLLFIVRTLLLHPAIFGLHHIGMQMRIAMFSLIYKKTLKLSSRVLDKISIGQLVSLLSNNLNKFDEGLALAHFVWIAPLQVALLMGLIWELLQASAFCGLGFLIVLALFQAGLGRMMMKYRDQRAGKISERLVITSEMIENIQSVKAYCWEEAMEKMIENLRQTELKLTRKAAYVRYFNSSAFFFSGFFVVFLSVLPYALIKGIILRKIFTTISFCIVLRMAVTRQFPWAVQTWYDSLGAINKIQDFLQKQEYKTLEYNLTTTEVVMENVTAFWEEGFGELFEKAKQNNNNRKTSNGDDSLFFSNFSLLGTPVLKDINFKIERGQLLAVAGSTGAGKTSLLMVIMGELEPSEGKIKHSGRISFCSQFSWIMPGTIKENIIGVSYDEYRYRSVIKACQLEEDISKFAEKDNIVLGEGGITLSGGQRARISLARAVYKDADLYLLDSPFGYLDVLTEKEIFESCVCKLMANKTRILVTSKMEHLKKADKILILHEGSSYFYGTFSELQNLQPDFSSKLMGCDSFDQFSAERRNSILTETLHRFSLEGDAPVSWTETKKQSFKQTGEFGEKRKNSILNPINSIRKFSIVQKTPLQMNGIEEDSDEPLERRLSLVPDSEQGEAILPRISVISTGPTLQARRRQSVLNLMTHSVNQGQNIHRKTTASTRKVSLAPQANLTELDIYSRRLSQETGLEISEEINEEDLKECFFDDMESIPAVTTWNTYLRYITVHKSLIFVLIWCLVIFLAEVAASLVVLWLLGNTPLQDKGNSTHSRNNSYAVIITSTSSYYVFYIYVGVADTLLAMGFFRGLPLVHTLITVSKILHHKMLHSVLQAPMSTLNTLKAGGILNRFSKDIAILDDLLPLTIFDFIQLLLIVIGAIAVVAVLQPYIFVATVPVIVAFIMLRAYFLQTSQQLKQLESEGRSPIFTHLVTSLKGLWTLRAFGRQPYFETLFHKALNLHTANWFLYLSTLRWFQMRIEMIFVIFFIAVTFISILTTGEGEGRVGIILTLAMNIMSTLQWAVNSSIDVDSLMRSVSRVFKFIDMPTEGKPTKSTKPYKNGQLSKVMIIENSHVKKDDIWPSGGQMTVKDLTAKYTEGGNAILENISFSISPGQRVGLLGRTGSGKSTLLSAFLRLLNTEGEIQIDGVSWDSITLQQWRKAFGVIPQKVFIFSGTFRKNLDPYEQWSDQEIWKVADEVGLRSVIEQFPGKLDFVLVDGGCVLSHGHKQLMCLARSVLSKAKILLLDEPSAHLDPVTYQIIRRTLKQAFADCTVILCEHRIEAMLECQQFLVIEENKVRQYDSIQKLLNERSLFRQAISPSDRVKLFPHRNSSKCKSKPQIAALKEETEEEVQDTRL

As to `CCCN(CC1CC1)c1nc(C(N)=O)cc(-c2ccccc2OC)n1` [Compound 39], the Efficacy result is listed as “+++ (+++ corresponds to Efficacy greater than 100)” and the concentration for a half-maximal effect (EC50) (in general, the concentration giving half of the maximal effect) is above 5 µM.

For the compound `Cc1ccc(-c2cc(C(N)=O)nc(N3CCCCC3)n2)cc1C` [Compound 40], the Efficacy entry is “++ (++ corresponds to Efficacy between 100 and 50)”; the EC50 is above 5 µM.

Take `CNC(=O)c1cc(-c2ccccc2)nc(NCC2CC2)n1` [Compound 41]: the Efficacy result is given as “+ (+ corresponds to Efficacy less than 50)” and the concentration for a half-maximal effect (EC50) was above 5 µM.

Turning to `NC(=O)c1cc(-c2ccccc2)nc(N2CCC(O)(c3ccc(Cl)cc3)CC2)n1` [Compound 42], the Efficacy entry is given as “+ (+ corresponds to Efficacy less than 50)” and the 50% effective concentration (EC50) was above 5 µM.

As for `NC(=O)c1cc(-c2ccccc2)nc(N2CCCC(CO)C2)n1` (centres unmarked) [Compound 43], the Efficacy entry is listed as “+ (+ corresponds to Efficacy less than 50)” and the EC50 is above 5 µM.

On to `NC(=O)c1cc(-c2ccccc2)nc(N2CCC3(CC2)OCCO3)n1` [Compound 44], for which the Efficacy result was “++ (++ corresponds to Efficacy between 100 and 50)”; the concentration for a half-maximal effect (EC50) is above 5 µM.

Consider `CC(=O)C1(c2ccccc2)CCN(c2nc(C(N)=O)cc(-c3ccccc3)n2)CC1` [Compound 45], for which the Efficacy entry is “++ (++ corresponds to Efficacy between 100 and 50)”; the EC50 was in the range of 1 to 5 µM.

For `NC(=O)c1cc(-c2ccccc2)nc(N2CC=CCC2)n1` [Compound 46], the Efficacy entry was “+++ (+++ corresponds to Efficacy greater than 100)” and the EC50 is 1 to 5 µM.

For the compound `CCN(CC)c1nc(C(=O)NC)cc(-c2ccccc2)n1` [Compound 47], the Efficacy result is on record as “+++ (+++ corresponds to Efficacy greater than 100)” and the concentration giving a half-maximal response (EC50) lay in the range of 1 to 5 µM.

Consider `C=CCNc1nc(C(N)=O)cc(-c2cccc(OC)c2)n1` [Compound 48], for which the Efficacy entry was “++ (++ corresponds to Efficacy between 100 and 50)”; the concentration giving a half-maximal response (EC50) is above 5 µM.

On to `COc1cc2c(cc1OC)CN(c1nc(C(N)=O)cc(-c3ccccc3)n1)CC2` [Compound 49], for which the Efficacy entry was “++ (++ corresponds to Efficacy between 100 and 50)”; the EC50 is above 5 µM.

On to `CCN(Cc1ccccc1)c1nc(C(N)=O)cc(-c2ccccc2)n1` [Compound 50], for which the Efficacy entry is “+++ (+++ corresponds to Efficacy greater than 100)” and the EC50 is below 1 µM.

As to `CC(C)CNc1nc(C(N)=O)cc(-c2ccccc2)n1` [Compound 51], the Efficacy result is “++ (++ corresponds to Efficacy between 100 and 50)”; the concentration for a half-maximal effect (EC50) is above 5 µM.

`CCCCN(Cc1ccccc1)c1nc(C(N)=O)cc(-c2ccccc2)n1` [Compound 52]: the Efficacy entry is “++ (++ corresponds to Efficacy between 100 and 50)”; the half-maximal effective concentration (EC50) lay in the range of 1 to 5 µM.

On to `NC(=O)c1cc(-c2ccccc2)nc(N2CC=C(c3ccccc3)CC2)n1` [Compound 53], for which the Efficacy result was “++ (++ corresponds to Efficacy between 100 and 50)”; the 50% effective concentration (EC50) was above 5 µM.

Regarding `NC(=O)c1cc(-c2ccccc2)nc(N2CCc3ccccc3C2)n1` [Compound 54], the Efficacy result was “++ (++ corresponds to Efficacy between 100 and 50)”; the EC50 was in the range of 1 to 5 µM.

On to `CCN(CC)c1nc(C(N)=O)cc(-c2ccc(C(C)C)cc2)n1` [Compound 55], for which the Efficacy result was “++ (++ corresponds to Efficacy between 100 and 50)”; the concentration giving a half-maximal response (EC50) was below 1 µM.

On to `CCN(CC)c1nc(C(N)=O)cc(-c2cccc(C)c2)n1` [Compound 56], for which the Efficacy entry is “+++ (+++ corresponds to Efficacy greater than 100)” and the half-maximal effective concentration (EC50) lay in the range of 1 to 5 µM.

With `NC(=O)c1cc(-c2ccccc2)nc(-n2cccn2)n1` [Compound 57], the Efficacy entry was “+ (+ corresponds to Efficacy less than 50)” and the EC50 is above 5 µM.

Consider `NC(=O)c1cc(-c2ccccc2)nc(-n2ccnc2)n1` [Compound 58], for which the Efficacy entry is listed as “+ (+ corresponds to Efficacy less than 50)” and the EC50 was above 5 µM.

For `CCOC(=O)C1CCCN(c2nc(C(N)=O)cc(-c3ccccc3)n2)C1` (centres unmarked) [Compound 59], the Efficacy result is listed as “+ (+ corresponds to Efficacy less than 50)” and the EC50 was 1 to 5 µM.

Turning to `NC(=O)c1cc(-c2ccccc2)nc(N2CCC(C(=O)c3ccc(F)cc3)CC2)n1` [Compound 60], the Efficacy entry was “++ (++ corresponds to Efficacy between 100 and 50)”; the 50% effective concentration (EC50) is above 5 µM.

On to `CCN(CC)c1nc(C(N)=O)cc(-c2ccccc2C)n1` [Compound 61], for which the Efficacy result was “++ (++ corresponds to Efficacy between 100 and 50)”; the EC50 fell in the range of 1 to 5 µM.

On to `CCN(CC)c1nc(C(N)=O)cc(-c2cccc(NC(C)=O)c2)n1` [Compound 62], for which the Efficacy result is “++ (++ corresponds to Efficacy between 100 and 50)”; the EC50 was above 5 µM.

Regarding `CN(CCc1c[nH]c2ccccc12)c1nc(C(N)=O)cc(-c2ccccc2)n1` [Compound 63], the Efficacy entry is “++ (++ corresponds to Efficacy between 100 and 50)”; the 50% effective concentration (EC50) is 1 to 5 µM.

Take `COc1ccc(-c2cc(C(N)=O)nc(N3CCCCC3)n2)c(OC)c1` [Compound 65]: the Efficacy result is “++ (++ corresponds to Efficacy between 100 and 50)”; the EC50 is above 5 µM.

Consider `CCN(CC)c1nc(C(N)=O)cc(-c2cc(C)cs2)n1` [Compound 66], for which the Efficacy entry was “+++ (+++ corresponds to Efficacy greater than 100)” and the 50% effective concentration (EC50) is below 1 µM.

Regarding `CCN(CC)c1nc(C(N)=O)cc(-c2ccc(F)cc2)n1` [Compound 67], the Efficacy result is “+++ (+++ corresponds to Efficacy greater than 100)” and the EC50 is 1 to 5 µM.

On to `NC(=O)c1cc(-c2ccccc2)nc(N2CCCCCC2)n1` [Compound 68], for which the Efficacy entry was “++ (++ corresponds to Efficacy between 100 and 50)”; the EC50 was in the range of 1 to 5 µM.

As to `C=CCN(CC=C)c1nc(C(N)=O)cc(-c2ccccc2)n1` [Compound 69], the Efficacy entry was “+++ (+++ corresponds to Efficacy greater than 100)” and the EC50 is 1 to 5 µM.

In the case of `Cc1csc(-c2cc(C(N)=O)nc(N3CCCCC3)n2)c1` [Compound 70], the Efficacy result is listed as “+ (+ corresponds to Efficacy less than 50)” and the 50% effective concentration (EC50) was in the range of 1 to 5 µM.

In the case of `CC(C)(C)Nc1nc(C(N)=O)cc(-c2ccccc2)n1` [Compound 71], the Efficacy entry was “++ (++ corresponds to Efficacy between 100 and 50)”; the concentration for a half-maximal effect (EC50) was above 5 µM.

In the case of `NC(=O)c1cc(-c2ccccc2C(F)(F)F)nc(N2CCCCC2)n1` [Compound 72], the Efficacy entry was “++ (++ corresponds to Efficacy between 100 and 50)”; the concentration for a half-maximal effect (EC50) lay in the range of 1 to 5 µM.

Take `CCCC1CCN(c2nc(C(N)=O)cc(-c3ccccc3)n2)CC1` [Compound 73]: the Efficacy result is “+ (+ corresponds to Efficacy less than 50)” and the EC50 is 1 to 5 µM.

For the compound `CCN(CC)c1nc(C(N)=O)cc(-c2cccc(OC)c2)n1` [Compound 74], the Efficacy result was “+++ (+++ corresponds to Efficacy greater than 100)” and the EC50 lay within 1 to 5 µM.

Consider `CCN(CC)c1nc(C(N)=O)cc(-c2cccc(C(F)(F)F)c2)n1` [Compound 75], for which the Efficacy result is “++ (++ corresponds to Efficacy between 100 and 50)”; the EC50 was below 1 µM.

Regarding `CCN(CC)c1nc(C(N)=O)cc(-c2cc(C(C)C)ccc2OC)n1` [Compound 76], the Efficacy result was “+++ (+++ corresponds to Efficacy greater than 100)” and the 50% effective concentration (EC50) was below 1 µM.

The record behind these values is US8822451B2, “Modulators of ATP-binding cassette transporters” (Vertex Pharmaceuticals Incorporated, priority 2005, dated 2014).
